Read-outs that look alike come from different tables or passages of the source.
How the values were obtained:
[1] = biological target: T1, DPP4 (Homo sapiens, UniProt P27487); assay type: biochemical
T1 construct: purchased

[2] = biological target: T2, Cathepsin L (Homo sapiens, UniProt P07711); assay type: biochemical
T2 construct: purchased
T2 sequence (P07711 114-333): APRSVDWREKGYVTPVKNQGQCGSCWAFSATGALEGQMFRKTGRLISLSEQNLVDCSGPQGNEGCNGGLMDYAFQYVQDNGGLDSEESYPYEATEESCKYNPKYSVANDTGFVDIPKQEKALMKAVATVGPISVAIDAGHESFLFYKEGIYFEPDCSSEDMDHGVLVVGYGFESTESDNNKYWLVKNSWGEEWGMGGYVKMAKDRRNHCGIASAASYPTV

T1 sequence (P27487 whole entry): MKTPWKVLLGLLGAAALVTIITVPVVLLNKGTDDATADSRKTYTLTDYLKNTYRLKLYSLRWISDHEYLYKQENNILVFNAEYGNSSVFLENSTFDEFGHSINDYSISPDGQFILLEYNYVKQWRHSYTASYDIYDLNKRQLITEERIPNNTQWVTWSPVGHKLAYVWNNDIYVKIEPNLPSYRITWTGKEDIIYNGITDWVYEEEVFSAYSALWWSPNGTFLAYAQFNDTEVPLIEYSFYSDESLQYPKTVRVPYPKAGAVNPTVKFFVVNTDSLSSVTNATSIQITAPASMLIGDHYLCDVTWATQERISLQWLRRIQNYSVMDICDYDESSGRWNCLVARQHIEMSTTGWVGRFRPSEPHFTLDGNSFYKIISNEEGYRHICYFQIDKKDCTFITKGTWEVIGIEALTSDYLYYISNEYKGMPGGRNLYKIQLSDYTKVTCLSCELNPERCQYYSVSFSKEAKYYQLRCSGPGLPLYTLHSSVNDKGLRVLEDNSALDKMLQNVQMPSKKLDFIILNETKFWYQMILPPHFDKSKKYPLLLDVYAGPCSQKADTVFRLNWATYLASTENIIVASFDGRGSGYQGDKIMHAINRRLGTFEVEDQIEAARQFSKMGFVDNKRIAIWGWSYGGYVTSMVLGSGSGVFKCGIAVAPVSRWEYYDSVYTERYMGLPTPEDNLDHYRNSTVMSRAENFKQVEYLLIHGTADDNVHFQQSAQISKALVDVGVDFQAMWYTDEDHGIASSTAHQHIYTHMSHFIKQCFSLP

SMILES | % Inhibition wrt Enzyme Control ([1]; 0.001 μM) [%] | % Inhibition wrt Enzyme Control ([1]; 0.01 μM) [%] | % Inhibition wrt Enzyme Control ([1]; 0.1 µM) [%] | % Inhibition wrt Enzyme Control ([1]; 1 µM) [%] | % Inhibition wrt Enzyme Control ([2]; 0.0001 μM) [%] | % Inhibition wrt Enzyme Control ([2]; 0.01 μM) [%] | % Inhibition wrt Enzyme Control ([2]; 0.1 µM) [%]
CC(C)C[C@H](NC(=O)OCc1ccccc1)C(=O)N[C@@H](C[C@@H]1CCNC1=O)C(O)S(=O)(=O)[O-].[Na+] (stereo partly shown) [GC376] | 32.4 | 76.2 | 87.1 | 99.5 |  |  | 
CC(C)C[C@H](NC(=O)[C@H]1O[C@@H]1C(=O)O)C(=O)NCCCCN=C(N)N [E-64] |  |  |  |  | 7.4 | 24.2 | 61.0

Reference: patent US20250041380A1, “R[…] FOR SARS-COV2 DISEASE” (priority 2021, published 2025)
